Laboratory results published in paper PMC11005471 (Frontiers in Veterinary Science, 2024).
Where two headings read alike, the source gives them in different places.

Columns and labels:
[1] = tested on: Bbp; assay type: biochemical, Brucella suis
[2] = tested on: Bbp; assay type: biochemical, Brucella suis; remark: listed apart in the source

| SMILES | Km [1] [µM] | Km [2] [µM] |
| --- | --- | --- |
| O=P(O)(O)OC[C@H]1OC(O)(COP(=O)(O)O)[C@@H](O)[C@@H]1O (some centres unmarked) [F1,6bP] | 53.2 ± 6.3 |  |
| O=C(COP(=O)(O)O)[C@@H](O)[C@H](O)[C@H](O)[C@H](O)COP(=O)(O)O [S1,7bP] |  | 13.9 ± 3.2 |
